For 54 molecules, Papp results are on record in paper PMC11876671, “Investigating blood–brain barrier penetration and neurotoxicity of natural products for central nervous system drug development” (Scientific Reports, 2025).

Counter-ions that a name gives are not always drawn.

One data set is described as follows: in vitro. To be noted: PAMPA, PAMPA-BBB Pe(10^-6 cm/sec).
Regarding `O=C(O)c1cccc(C(=O)O)n1` [D[…]], the Papp is < 1 ×10⁻⁶ cm/s.
Still for that read-out and setting: the same measure for `C[C@]12C=CC(=O)C=C1[C@@H](F)C[C@@H]1[C@@H]2[C@@H](O)C[C@@]2(C)[C@H]1CC[C@]2(O)C(=O)CO` [FLUPREDNISOLONE]: 1.9 ×10⁻⁶ cm/s.

Staying with this data set, now noted: PAMPA, PAMPA-BBB Pe(10^-6 cm/sec), Table S3: compounds exhibiting low PAMPA-BBB permeability.
In the case of `CNCCc1ccc(O)c(O)c1` [DEOXYEPINEPHRINE HYDROCHLORIDE], the Papp is < 1 ×10⁻⁶ cm/s.
With `O=c1ccn([C@H]2C[C@H](O)[C@@H](CO)O2)c(=O)[nH]1` [DEOXYURIDINE], the Papp was < 1 ×10⁻⁶ cm/s.
With `O=C1c2c(O)cc(O)cc2O[C@H](c2cc(O)c(O)c(O)c2)[C@H]1O` [DIHYDROMYRICETIN], the Papp was < 1 ×10⁻⁶ cm/s.
The molecule `Cc1cccc2c3c(ccc12)C1=C(C(=O)C3=O)[C@@H](C)CO1` [DIHYDROTANSHINONE I] displayed a Papp of 3.7 ×10⁻⁶ cm/s.
Consider `N[C@H](C(=O)O)c1cc(O)cc(O)c1` [DIHYDROXYPHENYLGLYCINE], for which the Papp was < 1 ×10⁻⁶ cm/s.
For the molecule `O=C(O)Cc1ccc(O)c(O)c1` [DOPACETIC ACID], the Papp was < 1 ×10⁻⁶ cm/s.
The molecule `Oc1cc(O)c2cc(O)c(-c3cc(O)c(O)c(O)c3)[o+]c2c1` [D[…]] displayed an apparent permeability coefficient (Papp) of 4.7 ×10⁻⁶ cm/s.
Take `C[C@H]([C@H](O)CCC(C)(C)O)[C@H]1CC[C@@]2(O)C3=CC(=O)[C@@H]4C[C@@H](O)[C@@H](O)C[C@]4(C)[C@H]3CC[C@]12C` [ECDYSONE]: the Papp was < 1 ×10⁻⁶ cm/s.
For `O=C(O[C@@H]1Cc2c(O)cc(O)cc2O[C@@H]1c1ccc(O)c(O)c1)c1cc(O)c(O)c(O)c1` [EPICATECHIN GALLATE], the Papp is < 1 ×10⁻⁶ cm/s.
Still for that read-out and setting: the same measure for `C=C1CC[C@H](O)C/C1=C/C=C1\CCC[C@]2(C)[C@@H]([C@H](C)/C=C/[C@H](C)C(C)C)CC[C@@H]12` [ERGOCALCIFEROL]: < 1 ×10⁻⁶ cm/s.
With `C[C@]12CC[C@@H]3c4ccc(O)cc4CC[C@H]3[C@@H]1C[C@@H](O)[C@@H]2O` [ESTRIOL], the Papp is < 1 ×10⁻⁶ cm/s.
On to `CCCCC/C=C\C=C\C(=O)OCC` [ETHYL TRANS-2,CIS-4-DECADIENOATE], for which the Papp was < 1 ×10⁻⁶ cm/s.
Regarding `Clc1ccc([C@@H]2C[C@H]3CC[C@@H]2N3)cn1` [Epibatidine dihydrochloride], the apparent permeability coefficient (Papp) stood at 5.9 ×10⁻⁶ cm/s.
As to `CC(C)=CCC/C(C)=C/CC/C(C)=C/CO` [FARNESOL TRANS,TRANS-FARNESOL], the Papp is < 1 ×10⁻⁶ cm/s.
Take `O=C(C[C@H]1NCCC[C@@H]1O)Cn1cnc2ccccc2c1=O` [FEBRIFUGINE]: the Papp was < 1 ×10⁻⁶ cm/s.
In the case of `COc1cc(/C=C/C(=O)O)ccc1O` [FERULIC ACID], the Papp was found to be 1.2 ×10⁻⁶ cm/s.
Still for that read-out and setting: the value for `CCC(=O)c1c(O)cc(O)cc1O` [FLOPROPIONE] was 2.8 ×10⁻⁶ cm/s; that for `Cc1cc(O)c(C=O)c2c1C(=O)Oc1c(COC(=O)/C=C/C(=O)O)c(O)c(C(=O)O)c(C)c1O2` [FUMARPRO[…]] was < 1 ×10⁻⁶ cm/s; that for `CCCCc1ccc(C(=O)O)nc1` [FUSARIC ACID] was < 1 ×10⁻⁶ cm/s.
Same read-out and setting: the value for `O=C(O)c1cc(O)c(O)c(O)c1` [GALLIC ACID] was < 1 ×10⁻⁶ cm/s; that for `O=C(O[C@@H]1Cc2c(O)cc(O)cc2O[C@H]1c1cc(O)c(O)c(O)c1)c1cc(O)c(O)c(O)c1` [GALLOCATECHIN GALLATE, (-)-] was < 1 ×10⁻⁶ cm/s.
Consider `Oc1cc(O)c2c(c1)O[C@H](c1cc(O)c(O)c(O)c1)[C@@H](O)C2` [GALLOCATECHIN], for which the Papp is < 1 ×10⁻⁶ cm/s.
Turning to `CC(=O)O[C@@H]1C[C@H]2C(C)(C)C(=O)C=C[C@]2(C)[C@H]2CC[C@@]3(C)[C@H](c4ccoc4)OC(=O)[C@H]4O[C@]43[C@@]21C` [GEDUNIN], the Papp is < 1 ×10⁻⁶ cm/s.
For `COC1=C2C[C@@H](C)C[C@H](OC)[C@H](O)[C@@H](C)/C=C(\C)[C@H](OC(N)=O)[C@@H](OC)/C=C\C=C(/C)C(=O)NC(=CC1=O)C2=O` [GELDANAMYCIN], the Papp was < 1 ×10⁻⁶ cm/s.
Still for that read-out and setting: the value for `COC(=O)C1=CO[C@@H](O)[C@@H]2C(CO)=CC[C@H]12` [GENIPIN] was < 1 ×10⁻⁶ cm/s; that for `Nc1nc2c(ncn2[C@@H]2O[C@H](COP(=O)(O)OP(=O)(O)O)[C@@H](O)[C@H]2O)c(=O)[nH]1` [Guanosine pyrophosphate] was < 1 ×10⁻⁶ cm/s.
On to `C[C@]1(OC(=O)/C=C/c2ccccc2)C[C@@H](O)[C@]2(O)C=CO[C@@H](O[C@@H]3O[C@H](CO)[C@@H](O)[C@H](O)[C@H]3O)[C@@H]21` [HARPAGOSIDE], for which the Papp was < 1 ×10⁻⁶ cm/s.
On the same count and under the same terms, the value for `COC(=O)C[C@](O)(CCC(C)(C)O)C(=O)O[C@@H]1C(OC)=C[C@]23CCCN2CCc2cc4c(cc2[C@H]13)OCO4` [HARRINGTONINE] was < 1 ×10⁻⁶ cm/s; that for `C[C@@H]1CC[C@@]2(OC1)O[C@H]1C[C@H]3[C@@H]4CC[C@H]5C[C@@H](O)CC[C@]5(C)[C@H]4CC(=O)[C@]3(C)[C@H]1[C@@H]2C` [HECOGENIN] was < 1 ×10⁻⁶ cm/s.
For `Cc1ncsc1CCO` [HEMINEURINE], the apparent permeability coefficient (Papp) was < 1 ×10⁻⁶ cm/s.
The same measure, in the same setting: the same measure for `COc1ccc2cc1Oc1ccc(cc1)C[C@H]1c3cc(c(OC)cc3CCN1C)Oc1c(OC)c(OC)c(OC)c3c1[C@H](C2)N(C)CC3` [HERNANDEZINE]: 9.7 ×10⁻⁶ cm/s.

The same data set, now with this note: PAMPA, PAMPA-BBB Pe, Table S2: compounds exhibiting moderate to high PAMPA-BBB permeability.
For the molecule `C[C@]12CC[C@H]3[C@@H](CCC4=CC(=O)CC[C@@]43C)[C@@H]1CC[C@@H]2C(=O)CO` [DESOXYCORTICOSTERONE], the apparent permeability coefficient (Papp) was determined as 65 ×10⁻⁶ cm/s.
Take `COC1=CC(=O)O[C@@H](CCc2ccccc2)C1` [DIHYDROKAWAIN]: the Papp was 82 ×10⁻⁶ cm/s.
`COc1cc2c(O)c3c(c(-c4ccc5c(c4)OCO5)c2cc1OC)C(=O)OC3` [DIPHYLLIN] returned a Papp of 187 ×10⁻⁶ cm/s.
`C[C@]12CCC(=O)C=C1[C@@H]1C[C@@H]1[C@H]1[C@@H]3[C@@H]4C[C@@H]4[C@@]4(CCC(=O)O4)[C@@]3(C)CC[C@@H]12` [DROSPIRENONE]: the Papp amounted to 169 ×10⁻⁶ cm/s.
Still for that read-out and setting: the same measure for `COc1cc(C)c(C(=O)Oc2cc(C)c(C(=O)O)c(O)c2C)c(OC)c1C` [Diffractaic acid]: 15 ×10⁻⁶ cm/s.
Same read-out and setting: the same measure for `CN1CC(CO)=C[C@H]2c3cccc4[nH]cc(c34)C[C@H]21` [ELYMOCLAVINE]: 17 ×10⁻⁶ cm/s.
On the same count and under the same terms, the same measure for `CCOC(=O)/C=C/c1ccccc1` [ETHYL CINNAMATE]: 110 ×10⁻⁶ cm/s.
The molecule `CCOC(=O)c1ccc(O)cc1` [ETHYL HYDROXYBENZOATE] had a Papp of 43 ×10⁻⁶ cm/s.
Still for that read-out and setting: the same measure for `CCOC(=O)c1c(C)cc(O)cc1O` [ETHYL ORSELLINATE]: 137 ×10⁻⁶ cm/s; for `C=CCc1ccc(O)c(OC)c1` [EUGENOL]: 116 ×10⁻⁶ cm/s; for `C=C(C)c1cc2cc(C(C)=O)c(O)cc2o1` [EUPARIN]: 125 ×10⁻⁶ cm/s.
Still for that read-out and setting: the same measure for `COc1ccc(-c2cc(=O)c3c(O)c(OC)c(OC)cc3o2)cc1O` [EUPATORIN]: 281 ×10⁻⁶ cm/s; for `O=c1c(O)c(-c2ccccc2)oc2ccccc12` [FLAVONOL]: 181 ×10⁻⁶ cm/s.
On the same count and under the same terms, the same measure for `COc1ccc(-c2coc3cc(O)ccc3c2=O)cc1` [FORMONONETIN]: 97 ×10⁻⁶ cm/s; for `O=Cc1ccco1` [FURFURAL]: 46 ×10⁻⁶ cm/s.
The molecule `COc1cc(OC)c(OC)cc1C=O` [GAZARIN] showed a Papp of 64 ×10⁻⁶ cm/s.
Take `C=C[C@]12CN(C)[C@@H]3[C@H]4CO[C@H](C[C@H]41)[C@]1(C(=O)Nc4ccccc41)[C@@H]32` [GELSEMINE]: the apparent permeability coefficient (Papp) was 13 ×10⁻⁶ cm/s.
Still for that read-out and setting: the value for `O=c1c(-c2ccc(O)cc2)coc2cc(O[C@@H]3O[C@H](CO)[C@@H](O)[C@H](O)[C@H]3O)cc(O)c12` [GENISTIN] was 29 ×10⁻⁶ cm/s; that for `COc1cc(-c2oc3cc(O)ccc3c(=O)c2O)ccc1O` [GERALDOL] was 124 ×10⁻⁶ cm/s; that for `CCCCC[C@H](O)CC(=O)CCc1ccc(O)c(OC)c1` [GINGEROL] was 69 ×10⁻⁶ cm/s.
`CC1(C)O[C@@H]1COc1c2occc2cc2ccc(=O)oc12` [HERACLENIN] yielded an apparent permeability (Papp) of 210 ×10⁻⁶ cm/s.
